In patent publication EP0342850A1, “Enantiomeric glutaramide diuretic agents” (Pfizer Limited, priority 1988, dated 1989):

Legend:
mice = test: induction of natriuresis in mice in vivo (procedure of European patent application 0274234); settings: dose (mg/kg) given
Excerpt: (§1) Appropriate reagents and conditions for the various coupling and deprotection steps, described above, together with procedures for determining the biological activity of the products of formula (II) and appropriate pharmaceutical compositions and dosage ranges for their use are described in European patent application no. 0274234.
(§2) The activity of the racemate and separated enantiomers of the cis-4-{1-[2-carboxy-3-(2-methoxyethoxy)propyl]-1-cyclopentanecarboxamido}-1-cyclohexanecarboxylic acid was assessed by measuring their ability to inhibit the neutral endopeptidase E.C.3.4.24.11 in vitro or to induce natriuresis in mice in vivo following the procedure described in European patent application 0274234.

[1] = tested on: neutral endopeptidase E.C.3.4.24.11; test: inhibition of neutral endopeptidase E.C.3.4.24.11 in vitro (procedure of European patent application 0274234); format: biochemical; settings: general statement on the separated enantiomers of the diacid
Excerpt: as §1, §2

Row | Structure (SMILES) | Natriuresis in mouse (i.v.) (mice) | biological activity [1]
1 | COCCOCC(CC1(C(=O)N[C@H]2CC[C@@H](C(=O)O)CC2)CCCC1)C(=O)O (mixture of isomers) [(±) R,S, cis-4-{1-[2-carboxy-3-(2-methoxyethoxy)propyl]-1-cyclopentanecarboxamido}-1-cyclohexanecarboxylic acid] | active at 3 mg/kg | 
2 | COCCOC[C@H](CC1(C(=O)N[C@H]2CC[C@@H](C(=O)O)CC2)CCCC1)C(=O)O (racemic) [(±) S, (S)-cis-4-{1-[2-Carboxy-3-(2-methoxyethoxy)propyl]-1-cyclopentanecarboxamido}-1-cyclohexanecarboxylic acid] | active at 1.5 mg/kg | 
3 | COCCOCC(CC1(C(=O)N[C@H]2CC[C@@H](C(=O)O)CC2)CCCC1)C(=O)O (relative stereo) [(-) R, cis-4-{1-[2-carboxy-3-(2-methoxyethoxy)propyl]-1-cyclopentanecarboxamido}-1-cyclohexanecarboxylic acid] | inactive at 3 mg/kg | virtually inactive
